Laboratory results: patent publication US20100104550A1 (priority 2006, published 2010)

Key:
BiP = format: cell-based, African green monkey
GRP78/BiP = GRP78/BiP (Homo sapiens, UniProt P11021); format: cell-based
CHOP = format: cell-based, murine
bovine BiP = bovine BiP (Bos taurus, UniProt Q0VCX2); format: biochemical

Chain of GRP78/BiP (P11021 19-654): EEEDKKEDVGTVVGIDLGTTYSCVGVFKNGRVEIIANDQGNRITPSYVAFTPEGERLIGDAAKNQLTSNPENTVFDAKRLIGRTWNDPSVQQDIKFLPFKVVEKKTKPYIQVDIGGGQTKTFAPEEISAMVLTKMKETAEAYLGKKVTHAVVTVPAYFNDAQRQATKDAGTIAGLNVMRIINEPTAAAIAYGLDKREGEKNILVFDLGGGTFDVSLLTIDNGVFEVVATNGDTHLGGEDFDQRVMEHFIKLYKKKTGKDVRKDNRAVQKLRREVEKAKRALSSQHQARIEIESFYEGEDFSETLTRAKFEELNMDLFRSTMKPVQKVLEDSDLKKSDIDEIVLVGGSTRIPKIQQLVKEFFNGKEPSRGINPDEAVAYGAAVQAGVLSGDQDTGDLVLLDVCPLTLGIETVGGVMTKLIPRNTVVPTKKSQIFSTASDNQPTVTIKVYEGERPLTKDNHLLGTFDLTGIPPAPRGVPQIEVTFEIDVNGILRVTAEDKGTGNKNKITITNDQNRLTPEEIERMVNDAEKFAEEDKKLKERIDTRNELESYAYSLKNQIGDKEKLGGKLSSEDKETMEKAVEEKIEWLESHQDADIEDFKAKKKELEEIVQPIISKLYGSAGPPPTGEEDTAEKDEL

For C[C@H]1CCC/C=C/[C@@H]2C[C@H](O)C[C@H]2[C@H](O)/C=C/C(=O)O1 [brefeldin A], the “effect on SubAB cleavage of 72-kDa BiP” value (BiP) was “completely blocked”.

In the case of C/C=C(/C)C(=O)O[C@H]1C(C)=C2[C@H]([C@@H]1OC(=O)CCCCCCC)[C@@](C)(OC(C)=O)C[C@H](OC(=O)CCC)[C@@]1(O)[C@H]2OC(=O)[C@@]1(C)O [thapsigargin, reference compound], the “expression of BiP” value (GRP78/BiP) was “enhanced expression of BiP” and the “CHOP induction in N2A cells” value (CHOP) was “evident”.

With “SubB: B subunit of subtilase cytotoxin, 13 kDa, binds target cells and transports SubA intracellularly” the “cleavage of purified bovine BiP” value (bovine BiP) was “not cleaved”.

In the case of tunicamycin, the “CHOP induction in N2A cells” value (CHOP) was “evident”.
